Measured values reported in US6608069B1, “Phenyl xanthine derivatives” (SmithKline Beecham Corporation, priority 1998, dated 2003).
Counter-ions that a name gives are not always drawn.

How the values were obtained:
[1] = test system: cytokine-stimulated human umbilical vein endothelial cells; experiment: Cell Adhesion Assay: adherence of fluorescently-labelled leukocytes to endothelial cell monolayers; type: cell-based; details: inhibition of cytokine-stimulated adhesion minus basal adhesion, calcein-AM labelled leukocytes on HUVEC monolayers
Description: The antiadhesion activity of compounds of the invention was determined using a modification of the previously described method, Jurgensen, C. H. et. al., J. Immunol. 144: 653-661. The adhesiveness of cytokine-stimulated human umbilical vein endothelial cells was assessed by quantitating the adherence of fluorescently-labelled (calcein-AM, Molecular Probes, Eugene, Oreg.) leukocytes to endothelial cell monolayers. Activity was determined by calculating inhibition of cytokine-stimulated adhesion minus the basal adhesion (unstimulated).

Row | Structure (SMILES) | melting point [°C] | IC50 [1] [nM] | further results
1 | O=C(O)/C=C/c1ccc(-c2nc3c(=O)n(CC4CCCCCC4)c(=O)n(CC4CCCCCC4)c3[nH]2)cc1 (hydrate or solvate) [Example 7, (E)-4-(1,3-bis(cycloheptylmethyl)-1,2,3,6-tetrahydro-2,6-dioxo-9H-purin-8-yl)cinnamic Acid] | > 250 |  | 
2 | O=C(O)/C=C/c1cccc(-c2nc3c(=O)n(Cc4ccccc4)c(=O)n(Cc4ccccc4)c3[nH]2)c1 (hydrate or solvate) [Example 13, (E)-3-(1,3-bis(benzyl)-1,2,3,6-tetrahydro-2,6-dioxo-9H-purin-8-yl)cinnamic Acid] | > 350 |  | 
3 | Cn1c(=O)c2nc(-c3ccc(/C=C/C(=O)O)cc3)[nH]c2n(C)c1=O (hydrate or solvate) [Example 14, (E)-4-(1,3-bis(methyl)-1,2,3,6-tetrahydro-2,6-dioxo-9H-purin-8-yl)cinnamic Acid] | > 350 |  | 
4 | O=C(O)/C=C/c1ccc(-c2nc3c(=O)n(Cc4ccc(F)cc4)c(=O)n(Cc4ccc(F)cc4)c3[nH]2)cc1 (hydrate or solvate) [Example 25, (E)-4-(1,3-bis(4-fluorobenzyl)-1,2,3,6-tetrahydro-2,6-dioxo-9H-purin-8-yl)cinnamic Acid] | > 300 |  | 
5 | CCCn1c(=O)c2nc(-c3cccc(/C=C/C(=O)O)c3)[nH]c2n(CCC)c1=O (hydrate or solvate) [Example 26, (E)-3-[1,3-bis(propyl)-1,2,3,6-tetrahydro-2,6-dioxo-9H-purin-8-yl]cinnamic Acid] | > 350 |  | 
6 | O=C(O)/C=C/c1ccc(-c2nc3c(=O)n(CC4CCC4)c(=O)n(CC4CCC4)c3[nH]2)cc1 (hydrate or solvate) [Example 27, (E)-4-(1,3-bis(cyclobutylmethyl)-1,2,3,6-tetrahydro-2,6-dioxo-9H-purin-8-yl)cinnamic Acid] | > 300 |  | 
7 | O=C(O)/C=C/c1ccc(-c2nc3c(=O)n(Cc4cccnc4)c(=O)n(Cc4cccnc4)c3[nH]2)cc1 (hydrate or solvate) [Example 30, (E)-4-(1,3-Bis(3-pyridinylmethyl)-1,2,3,6-tetrahydro-2,6-dioxo-9H-purin-8-yl)cinnamic Acid] | > 300 |  | 
8 | O=C(O)/C=C/c1cccc(-c2nc3c(=O)n(CC4CCCCC4)c(=O)n(CC4CCCCC4)c3[nH]2)c1 (hydrate or solvate) [Example 31, (E)-3-[1,3-Bis(cyclohexylmethyl)-1,2,3,6-tetrahydro-2,6-dioxo-9H-purin-8-yl]cinnamic Acid] | > 350 |  | 
9 | O=C(O)/C=C/c1ccc(-c2nc3c(=O)n(Cc4ccccc4)c(=O)n(Cc4ccccc4)c3[nH]2)cc1 [Example 2, (E)-4-(1,3-bis(benzyl)-1,2,3,6-tetrahydro-2,6-dioxo-9H-purin-8-yl)cinnamic Acid] | > 300 |  | 
10 | O=C(O)/C=C/c1ccc(-c2nc3c(=O)n(CC4CCCC4)c(=O)n(CC4CCCC4)c3[nH]2)cc1 [Example 3, (E)-4-(1,3-bis(cyclopentylmethyl)-1,2,3,6-tetrahydro-2,6-dioxo-9H-purin-8-yl)cinnamic Acid] | > 300 |  | 
11 | CCCn1c(=O)c2nc(-c3ccc(/C=C/C(=O)O)cc3)[nH]c2n(CCC)c1=O [Example 4, (E)-4-(1,3-bis(propyl)-1,2,3,6-tetrahydro-2,6-dioxo-9H-purin-8-yl)cinnamic Acid] | > 300 |  | 
12 | O=C(O)/C=C/c1ccc(-c2nc3c(=O)n(CC4CC4)c(=O)n(CC4CC4)c3[nH]2)cc1 [Example 5, (E)-4-(1,3-bis(cyclopropylmethyl)-1,2,3,6-tetrahydro-2,6-dioxo-9H-purin-8-yl)cinnamic Acid] | > 250 |  | 
13 | O=C(O)/C=C/c1ccc(-c2nc3c(=O)n(CCC4CCCCC4)c(=O)n(CCC4CCCCC4)c3[nH]2)cc1 [Example 8, (E)-4-(1,3-bis(2-cyclohexylethyl)-1,2,3,6-tetrahydro-2,6-dioxo-9H-purin-8-yl)cinnamic Acid] | > 250 |  | 
14 | O=C(O)/C=C/c1ccc(-c2nc3c(=O)n(-c4ccccc4)c(=O)n(-c4ccccc4)c3[nH]2)cc1 [Example 9, (E)-4-(1,3-bis(phenyl)-1,2,3,6-tetrahydro-2,6-dioxo-9H-purin-8-yl)cinnamic Acid] | > 375 |  | 
15 | CC(C)Cn1c(=O)c2nc(-c3ccc(/C=C/C(=O)O)cc3)[nH]c2n(CC(C)C)c1=O [Example 10, (E)-4-(1,3-bis(2-methylpropyl)-1,2,3,6-tetrahydro-2,6-dioxo-9H-purin-8-yl)cinnamic Acid] | > 300 |  | 
16 | COCCOCCOCCOCCOCCOCCOCCOCCOCCOCc1ccc(-c2nc3c([nH]2)c(=O)n(CC2CCCCC2)c(=O)n3CC2CCCCC2)cc1 [Example 96, 1,3-Bis(cyclohexylmethyl)-8-[4-(2,5,8,11,14,17,20,23,26,29-decaoxatriacont-1-yl)phenyl]-3,7-dihydro-1H-purine-2,6-dione] |  |  | IC50 ([1]; Homo sapiens): 49 ± 16 nM
17 | COCCOCCOCCOC(=O)/C=C/c1ccc(-c2nc3c(c(=O)n(CC4CCCCC4)c(=O)n3CC3CCCCC3)n2CCOCCOCCOC)cc1 [Example 97] |  | > 1000 | 
18 | COCCOCCOCCOCCOCCOCCOCCOCCOCCOC(=O)/C=C/c1ccc(-c2nc3c([nH]2)c(=O)n(CC2CCCCC2)c(=O)n3CC2CCCCC2)s1 [Example 98, (E)-3-[5-[1,3-bis(cyclohexylmethyl)-2,3,6,7-tetrahydro-2,6-dioxo-1H-purin-8-yl]-2-thienyl]-2-propenoic Acid Nonaethylene Glycol Methyl Ether Ester] |  | 37 ± 23 | 
19 | COCCOCCOCCOCCOCCOCCOCCOCCOCCNC(=O)c1ccc(-c2nc3c(=O)n(CC4CCCCC4)c(=O)n(CC4CCCCC4)c3[nH]2)nc1 [Example 99, 6-(1,3-Bis(cyclohexylmethyl)-1,2,3,6-tetrahydro-2,6-dioxo-9H-purin-8-yl)nicotinic Acid Nonaethylene Glycol Methyl Ether Amide] |  | 77 ± 29 | 
20 | COCCOCCOCCOCCOCCOCCOCCOCCOCCN(CC1CC1)C(=O)/C=C/c1ccc(-c2nc3c(=O)n(CC4CCCCC4)c(=O)n(CC4CCCCC4)c3[nH]2)cc1 [Example 100, (E)-4-(1,3-Bis(cyclohexylmethyl)-1,2,3,6-tetrahydro-2,6-dioxo-9H-purin-8-yl)cinnamic Acid N-cyclopropylmethyl Nonaethylene Glycol Methyl Ether Amide] |  | 25 ± 8 | 
21 | O=C(/C=C/c1ccc(-c2nc3c(=O)n(CC4CCCCC4)c(=O)n(CC4CCCCC4)c3[nH]2)cc1)NCCOCCOCCOCCOCCOCCOCc1ccccc1 [Example 101, (E)-4-(1,3-Bis(cyclohexylmethyl)-1,2,3,6-tetrahydro-2,6-dioxo-9H-purin-8-yl)cinnamic Acid Hexaethylene Glycol Benzyl Ether Amide] |  | 340 ± 94 | 
22 | COCCOCCOCCOCCOCCOCCOCCOC(=O)/C=C/c1ccc(-c2nc3c(c(=O)[nH]c(=O)n3CC3CCCCC3)n2C)cc1 [Example 103, (E)-4-[(3-Cyclohexylmethyl)-2,3,6,7-tetrahydro-2,6-dioxo-7-methyl-1H-purin-8-yl]cinnamic Acid Heptaethylene Glycol Methyl Ether Ester] |  | 230 ± 110 | 
23 | COCCOCCOCCOCCOCCOCCOCCOCCOCCOC(=O)/C=C/c1ccc(-c2nc3c(c(=O)[nH]c(=O)n3CC3CCCCC3)n2C)cc1 [Example 104, (E)-4-[(3-Cyclohexylmethyl)-2,3,6,7-tetrahydro-2,6dioxo-7-methyl-1H-purin-8-yl]cinnamic Acid Nonaethylene Glycol Methyl Ether Ester] |  | 86 ± 54 | 
24 | COCCOCCOCCOCCOCCOCCOCCOCCOCCOC(=O)/C=C/c1ccc(-c2nc3c(c(=O)n(C)c(=O)n3CC3CCCCC3)n2C)cc1 [Example 105, (E)-4-[(3-Cyclohexylmethyl)-2,3,6,7-tetrahydro-2,6dioxo-1,7-dimethyl-1H-purin-8-yl]cinnamic Acid Nonaethylene Glycol Methyl Ether Ester] |  | 200 ± 80 | 
25 | COCCOCCOCCOCCOCCOCCOCCNCc1ccc(-c2nc3c(=O)n(CC4CCCCC4)c(=O)n(CC4CCCCC4)c3[nH]2)cc1 [Example 106, 4-[1,3-Bis(cyclohexylmethyl)-1,2.3,6-tetrahydro-2,6-dioxo-9H-purin-8-yl]benzylamine N-Heptaethylene Glycol Methyl Ether] |  | 110 ± 56 | 
26 | COCCOCCOCCOCCOCCOCCOCCNCc1ccc(-c2nc3c(=O)n(CC4CCCCC4)c(=O)n(CC4CCCCC4)c3[nH]2)cc1 [Example 107, 4-[1,3-Bis(cyclohexylmethyl)-1,2,3,6-tetrahydro-2,6-dioxo-9H-purin-8-yl]benzylamine N-Heptaethylene Glycol Methyl Ether Hydrochloride] |  |  | IC50 ([1]; Hydrochloride): 39 ± 19 nM
27 | COCCOCCOCCOCCOCCOCCOCCOCCOCCNCc1ccc(-c2nc3c(=O)n(CC4CCCCC4)c(=O)n(CC4CCCCC4)c3[nH]2)cc1 [Example 108, 4-[1,3-Bis(cyclohexylmethyl)-1,2,3,6-tetrahydro-2,6-dioxo-9H-purin-8-yl]benzylamine N-Nonaethylene Glycol Methyl Ether] |  | 300 ± 82 | 
28 | COCCOCCOCCOCCOCCOCCOCCOCCOCCOCc1cccc(-c2nc3c([nH]2)c(=O)n(CC2CCCCC2)c(=O)n3CC2CCCCC2)c1 [Example 110, 1,3-Bis(cyclohexylmethyl)-8-[3-(2,5,8,11,14,17,20,23,26,29-decaoxatriacont-1-yl)phenyl]-3,7-dihydro-1H-purine-2,6-dione] |  |  | IC50 ([1]; Homo sapiens): 29 ± 11 nM
29 | COCCOCCOCCOCCOCCOCCOCCOC(=O)/C=C/c1ccc(-c2nc3c(c(=O)n(CC4CCCCC4)c(=O)n3CC3CCCCC3)n2C)cc1 [Example 111, (E)-4-(1,3-Bis(cyclohexylmethyl)-2,3,6,7-tetrahydro-2,6-dioxo-7-methyl-1H-purin-8-yl)cinnamic Acid Heptaethylene Glycol Methyl Ether Ester] |  | < 0.1 | 
